Measured values taken from paper PMC6797481, “Identification of an allosteric binding site on the human glycine transporter, GlyT2, for bioactive lipid analgesics” (eLife, 2019).
Changes are numbered by the printed parent chain.

Experiments:
GlyT2 P561S mutant = target: T1, GlyT2 P561S mutant (Homo sapiens, UniProt Q9Y345, P561S); assay: Glycine transport currents, two electrode voltage clamp, oocytes expressing GlyT2 P561S; assay type: cell-based; settings: for IC50 / % Max. inhibition: GlyT2 P561S; for % Max. inhibition: mean ± SEM
T1 construct: expressed in transfected cells; host or cells: Xenopus laevis oocytes (cRNA injection)
T1 sequence (Q9Y345 1-797 P561S): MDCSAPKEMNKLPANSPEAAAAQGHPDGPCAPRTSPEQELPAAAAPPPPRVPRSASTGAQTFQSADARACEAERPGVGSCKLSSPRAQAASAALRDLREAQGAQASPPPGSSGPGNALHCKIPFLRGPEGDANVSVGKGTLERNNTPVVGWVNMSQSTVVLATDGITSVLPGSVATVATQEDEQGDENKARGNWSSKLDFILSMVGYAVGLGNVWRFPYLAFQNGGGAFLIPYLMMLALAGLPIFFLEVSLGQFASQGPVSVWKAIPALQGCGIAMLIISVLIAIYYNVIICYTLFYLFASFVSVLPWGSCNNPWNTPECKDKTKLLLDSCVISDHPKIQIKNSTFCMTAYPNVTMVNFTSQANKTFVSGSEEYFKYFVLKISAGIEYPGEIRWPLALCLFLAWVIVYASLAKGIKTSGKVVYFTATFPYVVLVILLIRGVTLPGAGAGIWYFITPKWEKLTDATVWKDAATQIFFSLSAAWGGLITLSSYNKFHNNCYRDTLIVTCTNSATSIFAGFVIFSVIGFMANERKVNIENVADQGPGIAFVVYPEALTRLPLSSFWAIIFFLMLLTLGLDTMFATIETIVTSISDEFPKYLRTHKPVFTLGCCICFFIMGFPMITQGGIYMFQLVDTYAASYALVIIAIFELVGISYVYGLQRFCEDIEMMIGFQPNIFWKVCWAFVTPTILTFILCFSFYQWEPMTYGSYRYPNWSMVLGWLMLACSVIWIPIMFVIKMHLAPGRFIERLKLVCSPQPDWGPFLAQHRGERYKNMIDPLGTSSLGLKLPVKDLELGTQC
Method: (§1) Glycine was first applied to establish maximal transport current.
(§2) Compounds were tested for inhibition of glycine transport on Xenopus laevis oocytes expressing mutant GlyT1 and GlyT2 transporters. n values are in brackets, with measurements taken from at least 2 batches of oocytes.

GlyT2 Y550L mutant = target: T2, GlyT2 Y550L mutant (Homo sapiens, UniProt Q9Y345, Y550L); assay: Glycine transport currents, two electrode voltage clamp, oocytes expressing GlyT2 Y550L; assay type: cell-based; settings: for % Max. inhibition: mean ± SEM
T2 construct: expressed in transfected cells; host or cells: Xenopus laevis oocytes (cRNA injection)
T2 sequence (Q9Y345 1-797 Y550L): T1 sequence (Q9Y345 1-797 P561S) with Y550L, S561P
Method: as §1, §2

GlyT1 WT = test system: GlyT1 WT; set-up: method as in earlier work; settings: previously published; cited from earlier work
GlyT1 L425I mutant = target: T3, GlyT1 L425I mutant (Homo sapiens, UniProt P48067, L439I); assay: Glycine transport currents, two electrode voltage clamp, oocytes expressing GlyT1 L425I; assay type: cell-based; settings: for % Max. inhibition: mean ± SEM; for sensitivity of GlyT1 L425I to inhibition: similar to the WT GlyT1 response
T3 construct: expressed in transfected cells; host or cells: Xenopus laevis oocytes (cRNA injection)
T3 sequence (P48067 1-652 isoform P48067-3 L385I): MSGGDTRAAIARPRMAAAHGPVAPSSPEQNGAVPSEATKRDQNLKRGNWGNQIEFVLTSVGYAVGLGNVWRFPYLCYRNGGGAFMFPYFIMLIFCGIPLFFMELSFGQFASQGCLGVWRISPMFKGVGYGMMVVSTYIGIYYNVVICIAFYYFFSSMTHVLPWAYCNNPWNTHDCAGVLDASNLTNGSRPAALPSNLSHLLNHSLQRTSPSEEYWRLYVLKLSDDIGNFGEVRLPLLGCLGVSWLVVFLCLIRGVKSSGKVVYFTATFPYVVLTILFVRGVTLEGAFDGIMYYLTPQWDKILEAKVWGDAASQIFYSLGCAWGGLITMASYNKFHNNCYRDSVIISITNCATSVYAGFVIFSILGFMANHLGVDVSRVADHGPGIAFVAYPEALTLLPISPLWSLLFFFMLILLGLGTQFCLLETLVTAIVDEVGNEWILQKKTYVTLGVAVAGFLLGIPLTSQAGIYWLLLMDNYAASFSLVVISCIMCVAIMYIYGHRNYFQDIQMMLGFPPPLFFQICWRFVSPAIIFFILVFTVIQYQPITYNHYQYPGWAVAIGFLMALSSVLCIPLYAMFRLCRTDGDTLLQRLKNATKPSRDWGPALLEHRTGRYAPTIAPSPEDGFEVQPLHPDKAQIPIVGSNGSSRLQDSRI
Method: as §1, §2

[1] = GlyT2 Y550L, greater than maximum concentration applied (footnote a)
[2] = GlyT1 L425I, greater than maximum concentration applied (footnote a)

| Compound | IC50 (GlyT2 P561S mutant; mean (95% CI)) | % Max. inhibition (GlyT2 P561S mutant) | IC50 (GlyT2 Y550L mutant; [1]) | IC50 (GlyT1 WT) | % Max. inhibition (GlyT1 L425I mutant; GlyT1 L425I) | % Max. inhibition (GlyT2 Y550L mutant; GlyT2 Y550L) | IC50 (GlyT2 Y550L mutant; GlyT2 Y550L, mean (95% CI)) | IC50 (GlyT1 L425I mutant; [2]) | also measured |
| --- | --- | --- | --- | --- | --- | --- | --- | --- | --- |
| CCCCCCCC/C=C\CCCCCCCC(=O)N[C@@H](CC(=O)O)C(=O)O [oleoyl l-Aspartate] | 2540 nM | 58.2 ± 4.7 (p=0.0954) % | > 3000 nM | > 10000 nM |  |  |  |  | % Max. inhibition (% inhibition at the highest concentration of inhibitor used) (GlyT2 Y550L mutant; GlyT2 Y550L, footnote b): 7.0 ± 0.8^b (p=0.0001) % |
| NCC(=O)O [Glycine] |  |  |  |  |  |  |  |  | EC50 (GlyT1 L425I mutant; glycine transport, GlyT1 mutant printed I425L (EL4)): 45100 ± 9600 nM; EC50 (GlyT2 P561S mutant; glycine transport, GlyT2 P561S (TM8)): 15500 ± 4100 nM; EC50 (GlyT2 Y550L mutant; glycine transport, GlyT2 Y550L (EL4)): 62200 ± 11400 nM |
| CCCCCCCC/C=C\CCCCCCCC(=O)O[C@H](CC(=O)[O-])C[N+](C)(C)C [oleoyl L-Carnitine, reference compound] |  | 31.6 ± 5.2 (p=0.0001) % | > 3000 nM | > 10000 nM | 74.6% | 17.3 ± 1.4 (p=0.0001) % |  |  | IC50 (GlyT2 P561S mutant; greater than maximum concentration applied (footnote a)): > 3000 nM |
| CCCCCCCC/C=C\CCCCCCCC(=O)N[C@H](C(=O)O)C(C)C [oleoyl l-Valine] | 753 nM | 94.5 ± 4.7 (p=0.9462) % |  | > 30000 nM |  | 57.0 ± 5.1 (p=0.0028) % | 2930 nM |  |  |
| CCCCCCCC/C=C\CCCCCCCC(=O)NCC(=O)O [N-oleoyl Glycine, reference compound] | 564 nM | 62.1 ± 4.8 (p=0.9242) % |  | > 10000 nM |  | 34.8 ± 9.1 (p=0.0011) % | 829 nM | > 10000 nM | % Max. inhibition (% inhibition at the highest concentration of inhibitor used) (GlyT1 L425I mutant; GlyT1 L425I, footnote b): 28.5 ± 5.3^b (p=0.0564) %; sensitivity of GlyT1 L425I to inhibition (GlyT1 L425I mutant): insensitive |
| oleoyl d-Lysine | 558 nM | 76.7 ± 8.1 (p=0.4299) % | > 3000 nM | > 3000 nM |  | 38.4 ± 10.0 (p=0.0010) % |  |  |  |
| CCCCCCCC/C=C\CCCCCCCC(=O)N[C@@H](Cc1c[nH]c2ccccc12)C(=O)O [oleoyl l-Tryptophan] | 318 nM | 61.4 ± 4.2 (p=0.0001) % | > 3000 nM | > 10000 nM | 35.7 ± 13.2 (p=0.2787) % | 16.5 ± 1.7 (p=0.0001) % |  | > 3000 nM | sensitivity of GlyT1 L425I to inhibition (GlyT1 L425I mutant): insensitive |
| CCCCCCCC/C=C\CCCCCCCC(=O)N[C@@H](CCCCN)C(=O)O [oleoyl l-Lysine] | 69.2 nM | 71.5 ± 4.8 (p=0.0758) % |  | > 3000 nM | 95.6% | 48.2 ± 4.1 (p=0.0001) % | 210 nM |  | fold lower apparent affinity at GlyT1 L425I (GlyT1 L425I mutant; GlyT1 L425I compared with WT GlyT2): 9 fold; IC50 (GlyT1 L425I mutant; GlyT1 L425I, mean (95% CI)): 236 nM |
| CCCCC/C=C\C/C=C\C/C=C\C/C=C\CCCC(=O)NCC(=O)O [N-arachidonyl Glycine, reference compound] |  |  |  | > 10000 nM | 31.6 ± 6.9 (p=0.0361) % |  |  | > 10000 nM |  |
